What was measured:
[1] = Water adsorption properties by dynamic vapour sorption (DVS); assay type: physicochemical
Procedure: From the examination of water adsorption properties important conclusions can be made about the physical and chemical stability of a compound. Amorphous compounds can adsorb more water from the air. This property is deliberately disadvantageous during the preparation process of a pharmaceutical composition, since the real amount of the active ingredient can't be measured because of the adsorbed water.
Water adsorption properties of the compounds were measured by dynamic vapour sorption technique (DVS). […]

[2] = Fast Stability Test (solid stored on a plate at 40° C. in air, impurity by HPLC); assay type: physicochemical; conditions: for N-demethyl-derivative of CDB-4124: largest degradation product; for N-demethyl-derivative of CDB-4124 / Impurity: HPLC; for Impurity: stored on a plate at 40° C. in the presence of air
Procedure: Amorphous and crystalline forms were stored on a plate at 40° C. in the presence of air for 10 days. Impurity was measured at different times using HPLC equipment. […]

Compound	water adsorbed (max.) ([1]; DVS, 25° C., 0%-90% relative humidity, as humidity was increased)	stability (purity examination) ([2]; 40° C., air, 10 days, compared with amorphous form)	N-demethyl-derivative of CDB-4124 ([2]; Day 0, 40° C., air)	Impurity ([2]; Day 0)	N-demethyl-derivative of CDB-4124 ([2]; Day 1, 40° C., air)	Impurity ([2]; Day 1)	N-demethyl-derivative of CDB-4124 ([2]; Day 2, 40° C., air)	Impurity ([2]; Day 2)	Impurity ([2]; Day 6)	N-demethyl-derivative of CDB-4124 ([2]; Day 10, 40° C., air)	Impurity ([2]; Day 10)	mass change as the degree of humidity was increased ([1]; DVS, 25° C., 0%-90% relative humidity)	physical stability on change in relative humidity ([1]; room-temperature, independently of a change in relative humidity)
COCC(=O)[C@@]1(OC(C)=O)CC[C@H]2[C@@H]3CCC4=CC(=O)CCC4=C3[C@@H](c3ccc(N(C)C)cc3)C[C@@]21C [Amorphous form, 17α-acetoxy-21-methoxy-11β-[4-N,N-dimethylaminophenyl]-19-norpregna-4,9-diene-3,20-dione, reference compound]	2 m/m %	–	–	–	–	–	–	–	–	–	–	–	–
COCC(=O)[C@@]1(OC(C)=O)CC[C@H]2[C@@H]3CCC4=CC(=O)CCC4=C3[C@@H](c3ccc(N(C)C)cc3)C[C@@]21C [Form A, 17α-acetoxy-21-methoxy-11β-[4-N,N-dimethylaminophenyl]-19-norpregna-4,9-diene-3,20-dione]	–	much better than that of the amorphous form	0.18%	0.33%	0.18%	0.33%	0.18%	0.35%	0.43%	0.23%	0.48%	barely changed	stable anhydrate

Reference: US8513228B2, “Crystalline form of antiprogestin CDB-4124” (Richter Gedeon Nyrt., priority 2009, dated 2013)
